Values quoted from earlier work, collected in paper PMC6959220, “Glycofullerenes as non-receptor tyrosine kinase inhibitors- towards better nanotherapeutics for pancreatic cancer treatment” (Scientific Reports, 2020).

Tested on: NHDF
Set-up: method as in PMID 30562697

For Cc1nc(Nc2ncc(C(=O)Nc3c(C)cccc3Cl)s2)cc(N2CCN(CCO)CC2)n1 [Dasatinib, dasatinib], the “cytotoxic effects on a normal cell line” value is given as “cytotoxic effects”.
